Reference: ChEMBL document CHEMBL4364276, “Discovery of 4-phenyl-2H-benzo[b][1,4]oxazin-3(4H)-one derivatives as potent and orally active PI3K/mTOR dual inhibitors” (Eur J Med Chem, 2019)

Tests used:
[1] = target: Tyrosine-protein kinase ABL2 (Homo sapiens) (UniProt P42684); assay: Inhibition of human ABL2 at 100 nM using EAIYAAPFAKKK as substrate by [gamma-33P]-ATP assay
[2] = target: Serine/threonine-protein kinase PLK4 (Homo sapiens) (UniProt O00444); assay: Inhibition of human PLK4 at 100 nM using casein as substrate by [gamma-33P]-ATP assay
A549 = assay: Antitumor activity against human A549 cells xenografted in BALB/c nude mouse assessed as tumor growth inhibition at 40 mg/kg, ig administered for 30 days measured every 3 days during compound dosing relative to control; assay type: functional; conditions: A549, po, read-out: TGI
[3] = target: Dual specificity tyrosine-phosphorylation-regulated kinase 4 (Homo sapiens) (UniProt Q9NR20); assay: Inhibition of human DYRK4 at 100 nM using RRRFRPASPLRGPPK as substrate by [gamma-33P]-ATP assay
Dual specificity tyrosine-phosphorylation-regulated kinase 4 (Homo sapiens), sequence (Q9NR20 whole entry): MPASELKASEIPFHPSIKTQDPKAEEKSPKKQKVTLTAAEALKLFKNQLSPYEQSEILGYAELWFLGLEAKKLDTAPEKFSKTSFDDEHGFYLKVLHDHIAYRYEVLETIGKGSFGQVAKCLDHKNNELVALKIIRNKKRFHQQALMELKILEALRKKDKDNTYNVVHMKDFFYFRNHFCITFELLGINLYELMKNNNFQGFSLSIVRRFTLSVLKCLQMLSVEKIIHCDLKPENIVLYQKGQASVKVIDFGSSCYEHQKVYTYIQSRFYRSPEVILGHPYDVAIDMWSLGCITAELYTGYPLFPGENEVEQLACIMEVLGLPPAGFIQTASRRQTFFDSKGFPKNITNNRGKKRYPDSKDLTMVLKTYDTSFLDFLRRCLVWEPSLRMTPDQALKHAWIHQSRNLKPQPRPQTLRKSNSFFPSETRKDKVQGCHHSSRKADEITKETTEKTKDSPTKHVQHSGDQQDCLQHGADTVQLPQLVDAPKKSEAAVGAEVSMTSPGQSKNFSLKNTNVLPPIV

[4] = target: Mitogen-activated protein kinase 13 (Homo sapiens) (UniProt O15264); assay: Inhibition of human p38delta at 100 nM using MBP as substrate by [gamma-33P]-ATP assay
[5] = target: Mitogen-activated protein kinase kinase kinase kinase 5 (Homo sapiens) (UniProt Q9Y4K4); assay: Inhibition of human KHS at 100 nM using MBP as substrate by [gamma-33P]-ATP assay
[6] = target: Cyclin-dependent kinase 14/Cyclin-Y (Homo sapiens) (UniProt O94921+Q8ND76); assay: Inhibition of human CDK14/cyclin-Y at 100 nM using RB protein as substrate by [gamma-33P]-ATP assay; assay type: protein-complex assay
[7] = target: Angiopoietin-1 receptor (Homo sapiens) (UniProt Q02763); assay: Inhibition of human TIE2 at 100 nM using poly[Glu:Tyr] (4:1) as substrate by [gamma-33P]-ATP assay
[8] = target: Calcium/calmodulin-dependent protein kinase type 1G (Homo sapiens) (UniProt Q96NX5); assay: Inhibition of human CAMK1G at 100 nM using KKALRRQETVDAL as substrate by [gamma-33P]-ATP assay
[9] = target: Macrophage-stimulating protein receptor (Homo sapiens) (UniProt Q04912); assay: Inhibition of human RON at 100 nM using KKSRGDYMTMQIG as substrate by [gamma-33P]-ATP assay
[10] = target: Hepatocyte growth factor receptor (Homo sapiens) (UniProt P08581); assay: Inhibition of human c-MET at 100 nM using KKKSPGEYVNIEFG as substrate by [gamma-33P]-ATP assay
[11] = target: Cyclin-Y/Cyclin-dependent kinase 16 (Homo sapiens) (UniProt Q00536+Q8ND76); assay: Inhibition of human CDK16/cyclin-Y at 100 nM using RB protein as substrate by [gamma-33P]-ATP assay; assay type: protein-complex assay
[12] = target: LIM domain kinase 2 (Homo sapiens) (UniProt P53671); assay: Inhibition of human LIMK2 at 100 nM using cofilin as substrate by [gamma-33P]-ATP assay
LIM domain kinase 2 (Homo sapiens), sequence (P53671 whole entry, looked up, the tested form may be a part): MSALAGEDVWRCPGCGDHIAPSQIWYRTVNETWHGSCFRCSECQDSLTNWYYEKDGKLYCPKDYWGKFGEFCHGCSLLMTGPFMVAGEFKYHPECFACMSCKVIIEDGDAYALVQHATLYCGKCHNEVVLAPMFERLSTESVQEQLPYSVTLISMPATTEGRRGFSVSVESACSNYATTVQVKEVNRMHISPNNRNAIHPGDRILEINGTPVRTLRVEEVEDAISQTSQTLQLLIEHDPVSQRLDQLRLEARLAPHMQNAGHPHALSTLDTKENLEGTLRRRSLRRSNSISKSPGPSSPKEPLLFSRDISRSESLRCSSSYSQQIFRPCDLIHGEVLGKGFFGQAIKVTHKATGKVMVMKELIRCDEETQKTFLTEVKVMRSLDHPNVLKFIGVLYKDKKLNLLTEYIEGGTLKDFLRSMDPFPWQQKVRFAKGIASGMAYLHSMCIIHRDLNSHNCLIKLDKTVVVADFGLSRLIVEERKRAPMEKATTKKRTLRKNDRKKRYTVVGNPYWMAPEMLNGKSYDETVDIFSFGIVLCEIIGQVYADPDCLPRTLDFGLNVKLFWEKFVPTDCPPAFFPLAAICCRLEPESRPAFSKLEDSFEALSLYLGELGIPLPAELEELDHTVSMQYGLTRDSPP

[13] = target: Serine/threonine-protein kinase N3 (Homo sapiens) (UniProt Q6P5Z2); assay: Inhibition of human PKN3 at 100 nM using KKLNRTLSVA as substrate by [gamma-33P]-ATP assay
[14] = target: Serine/threonine-protein kinase Nek5 (Homo sapiens) (UniProt Q6P3R8); assay: Inhibition of human NEK5 at 100 nM using MBP as substrate by [gamma-33P]-ATP assay
[15] = target: Dual specificity mitogen-activated protein kinase kinase 1 (Homo sapiens) (UniProt Q02750); assay: Inhibition of human MEK1 at 100 nM using ERK2 as substrate by [gamma-33P]-ATP assay
Homo sapiens = species: Homo sapiens; assay: Inhibition of human AMPK (A2/B2/G2) at 100 nM using HMRSAMSGLHLVKRR as substrate by [gamma-33P]-ATP assay
[16] = target: Serine/threonine-protein kinase Sgk1 (Homo sapiens) (UniProt O00141); assay: Inhibition of human SGK1 at 100 nM using KGSGSGRPRTSSFAEG as substrate by [gamma-33P]-ATP assay
[17] = target: Fibroblast growth factor receptor 4 (Homo sapiens) (UniProt P22455); assay: Inhibition of human FGFR4 at 100 nM using poly[Glu:Tyr] (4:1) as substrate by [gamma-33P]-ATP assay
[18] = target: Serine/threonine-protein kinase Nek2 (Homo sapiens) (UniProt P51955); assay: Inhibition of human NEK2 at 100 nM using MBP as substrate by [gamma-33P]-ATP assay
[19] = target: Proto-oncogene tyrosine-protein kinase Src (Homo sapiens) (UniProt P12931); assay: Inhibition of human c-SRC at 100 nM using poly[Glu:Tyr] (4:1) as substrate by [gamma-33P]-ATP assay
[20] = target: Tyrosine-protein kinase HCK (Homo sapiens) (UniProt P08631); assay: Inhibition of human HCK at 100 nM using KVEKIGEGTYGVVYK as substrate by [gamma-33P]-ATP assay
[21] = target: Myosin-IIIb (Homo sapiens) (UniProt Q8WXR4); assay: Inhibition of human MYO3B at 100 nM using MBP as substrate by [gamma-33P]-ATP assay
[22] = target: Mitogen-activated protein kinase 10 (Homo sapiens) (UniProt P53779); assay: Inhibition of human JNK3 at 100 nM using ATF2 as substrate by [gamma-33P]-ATP assay
[23] = target: Mitogen-activated protein kinase kinase kinase 8 (Homo sapiens) (UniProt P41279); assay: Inhibition of human COT1 at 100 nM using MEK1 as substrate by [gamma-33P]-ATP assay
[24] = target: Ephrin type-A receptor 3 (Homo sapiens) (UniProt P29320); assay: Inhibition of human EPHA3 at 100 nM using poly[Glu:Tyr] (4:1) as substrate by [gamma-33P]-ATP assay
Ephrin type-A receptor 3 (Homo sapiens), sequence (P29320 whole entry): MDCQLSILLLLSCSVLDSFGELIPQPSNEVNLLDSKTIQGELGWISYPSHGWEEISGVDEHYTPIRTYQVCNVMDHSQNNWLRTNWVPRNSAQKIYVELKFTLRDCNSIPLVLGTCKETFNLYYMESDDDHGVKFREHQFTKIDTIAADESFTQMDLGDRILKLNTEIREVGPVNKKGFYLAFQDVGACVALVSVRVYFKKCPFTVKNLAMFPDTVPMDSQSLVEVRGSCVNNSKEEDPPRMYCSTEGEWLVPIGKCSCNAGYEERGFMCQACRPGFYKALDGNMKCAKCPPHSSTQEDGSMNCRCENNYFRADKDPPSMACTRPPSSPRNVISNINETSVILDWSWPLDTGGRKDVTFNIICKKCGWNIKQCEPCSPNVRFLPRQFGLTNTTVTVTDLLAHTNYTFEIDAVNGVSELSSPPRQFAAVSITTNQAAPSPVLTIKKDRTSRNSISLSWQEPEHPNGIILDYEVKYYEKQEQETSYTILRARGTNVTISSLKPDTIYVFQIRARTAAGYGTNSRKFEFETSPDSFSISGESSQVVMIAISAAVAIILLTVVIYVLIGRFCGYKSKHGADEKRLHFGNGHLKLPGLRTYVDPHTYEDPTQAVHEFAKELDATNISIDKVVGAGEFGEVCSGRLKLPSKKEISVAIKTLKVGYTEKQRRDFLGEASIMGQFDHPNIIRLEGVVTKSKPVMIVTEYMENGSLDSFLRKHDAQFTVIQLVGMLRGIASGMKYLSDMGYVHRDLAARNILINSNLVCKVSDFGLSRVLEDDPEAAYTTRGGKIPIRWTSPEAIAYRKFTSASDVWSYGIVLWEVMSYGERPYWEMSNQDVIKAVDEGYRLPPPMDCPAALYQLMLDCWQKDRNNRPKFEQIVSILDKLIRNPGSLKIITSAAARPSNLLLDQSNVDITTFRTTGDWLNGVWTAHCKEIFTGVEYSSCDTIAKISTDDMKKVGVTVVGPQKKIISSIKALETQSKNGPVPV

[25] = target: Homeodomain-interacting protein kinase 2 (Homo sapiens) (UniProt Q9H2X6); assay: Inhibition of human HIPK2 at 100 nM using MBP as substrate by [gamma-33P]-ATP assay
Homeodomain-interacting protein kinase 2 (Homo sapiens), sequence (Q9H2X6 whole entry, looked up): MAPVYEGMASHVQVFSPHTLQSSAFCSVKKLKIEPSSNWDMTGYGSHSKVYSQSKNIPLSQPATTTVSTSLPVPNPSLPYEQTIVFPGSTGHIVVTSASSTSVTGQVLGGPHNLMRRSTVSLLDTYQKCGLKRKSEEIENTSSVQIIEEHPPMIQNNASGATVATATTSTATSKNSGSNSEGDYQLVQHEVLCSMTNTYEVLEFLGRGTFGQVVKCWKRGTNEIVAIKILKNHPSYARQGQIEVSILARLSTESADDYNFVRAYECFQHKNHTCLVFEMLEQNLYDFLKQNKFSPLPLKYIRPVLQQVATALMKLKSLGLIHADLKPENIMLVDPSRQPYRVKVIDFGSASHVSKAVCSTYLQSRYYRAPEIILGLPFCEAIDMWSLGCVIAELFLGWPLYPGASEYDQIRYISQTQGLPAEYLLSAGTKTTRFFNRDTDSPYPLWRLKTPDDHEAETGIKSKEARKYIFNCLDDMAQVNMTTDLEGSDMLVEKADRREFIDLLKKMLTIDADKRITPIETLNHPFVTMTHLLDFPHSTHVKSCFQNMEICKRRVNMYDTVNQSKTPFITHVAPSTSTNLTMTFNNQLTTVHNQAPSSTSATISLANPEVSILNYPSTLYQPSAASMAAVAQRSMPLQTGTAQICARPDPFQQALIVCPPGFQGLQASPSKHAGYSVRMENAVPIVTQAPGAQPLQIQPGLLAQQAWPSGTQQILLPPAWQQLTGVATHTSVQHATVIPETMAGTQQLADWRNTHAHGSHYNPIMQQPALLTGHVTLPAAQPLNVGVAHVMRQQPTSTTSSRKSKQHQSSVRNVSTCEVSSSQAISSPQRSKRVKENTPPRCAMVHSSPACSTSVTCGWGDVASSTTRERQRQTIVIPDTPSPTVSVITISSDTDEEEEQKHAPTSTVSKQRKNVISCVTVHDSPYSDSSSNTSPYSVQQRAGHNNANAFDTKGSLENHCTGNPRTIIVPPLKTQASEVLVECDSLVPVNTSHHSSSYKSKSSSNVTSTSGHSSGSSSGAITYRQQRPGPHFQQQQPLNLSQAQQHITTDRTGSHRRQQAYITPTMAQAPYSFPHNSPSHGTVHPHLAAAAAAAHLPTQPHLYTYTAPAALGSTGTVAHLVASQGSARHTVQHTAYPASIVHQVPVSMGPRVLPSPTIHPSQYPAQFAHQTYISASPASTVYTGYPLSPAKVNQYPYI

[26] = target: CDK4/Cyclin D3 (Homo sapiens) (UniProt P11802+P30281); assay: Inhibition of human CDK4/cyclin-D3 at 100 nM using RB-CTF as substrate by [gamma-33P]-ATP assay; assay type: protein-complex assay
[27] = target: Calcium/calmodulin-dependent protein kinase type II subunit gamma (Homo sapiens) (UniProt Q13555); assay: Inhibition of human CAMK2G at 100 nM using KKLNRTLSFAEPG as substrate by [gamma-33P]-ATP assay
[28] = target: Dual specificity tyrosine-phosphorylation-regulated kinase 1A (Homo sapiens) (UniProt Q13627); assay: Inhibition of human DYRK1A at 100 nM using RRRFRPASPLRGPPK as substrate by [gamma-33P]-ATP assay
[29] = target: Dual specificity mitogen-activated protein kinase kinase 3 (Homo sapiens) (UniProt P46734); assay: Inhibition of human MEK3 at 100 nM using p38alpha as substrate by [gamma-33P]-ATP assay
Dual specificity mitogen-activated protein kinase kinase 3 (Homo sapiens), sequence (P46734 whole entry): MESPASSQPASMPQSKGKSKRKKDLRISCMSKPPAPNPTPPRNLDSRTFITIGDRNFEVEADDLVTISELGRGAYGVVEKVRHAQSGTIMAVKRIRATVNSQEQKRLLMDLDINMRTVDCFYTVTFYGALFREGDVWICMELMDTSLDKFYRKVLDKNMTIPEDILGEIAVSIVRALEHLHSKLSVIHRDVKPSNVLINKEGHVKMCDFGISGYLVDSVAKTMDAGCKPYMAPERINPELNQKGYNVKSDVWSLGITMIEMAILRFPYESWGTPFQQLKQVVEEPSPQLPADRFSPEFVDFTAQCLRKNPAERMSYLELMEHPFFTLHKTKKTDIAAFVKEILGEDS

Tyrosine-protein kinase ABL2 (Homo sapiens), sequence (P42684 whole entry): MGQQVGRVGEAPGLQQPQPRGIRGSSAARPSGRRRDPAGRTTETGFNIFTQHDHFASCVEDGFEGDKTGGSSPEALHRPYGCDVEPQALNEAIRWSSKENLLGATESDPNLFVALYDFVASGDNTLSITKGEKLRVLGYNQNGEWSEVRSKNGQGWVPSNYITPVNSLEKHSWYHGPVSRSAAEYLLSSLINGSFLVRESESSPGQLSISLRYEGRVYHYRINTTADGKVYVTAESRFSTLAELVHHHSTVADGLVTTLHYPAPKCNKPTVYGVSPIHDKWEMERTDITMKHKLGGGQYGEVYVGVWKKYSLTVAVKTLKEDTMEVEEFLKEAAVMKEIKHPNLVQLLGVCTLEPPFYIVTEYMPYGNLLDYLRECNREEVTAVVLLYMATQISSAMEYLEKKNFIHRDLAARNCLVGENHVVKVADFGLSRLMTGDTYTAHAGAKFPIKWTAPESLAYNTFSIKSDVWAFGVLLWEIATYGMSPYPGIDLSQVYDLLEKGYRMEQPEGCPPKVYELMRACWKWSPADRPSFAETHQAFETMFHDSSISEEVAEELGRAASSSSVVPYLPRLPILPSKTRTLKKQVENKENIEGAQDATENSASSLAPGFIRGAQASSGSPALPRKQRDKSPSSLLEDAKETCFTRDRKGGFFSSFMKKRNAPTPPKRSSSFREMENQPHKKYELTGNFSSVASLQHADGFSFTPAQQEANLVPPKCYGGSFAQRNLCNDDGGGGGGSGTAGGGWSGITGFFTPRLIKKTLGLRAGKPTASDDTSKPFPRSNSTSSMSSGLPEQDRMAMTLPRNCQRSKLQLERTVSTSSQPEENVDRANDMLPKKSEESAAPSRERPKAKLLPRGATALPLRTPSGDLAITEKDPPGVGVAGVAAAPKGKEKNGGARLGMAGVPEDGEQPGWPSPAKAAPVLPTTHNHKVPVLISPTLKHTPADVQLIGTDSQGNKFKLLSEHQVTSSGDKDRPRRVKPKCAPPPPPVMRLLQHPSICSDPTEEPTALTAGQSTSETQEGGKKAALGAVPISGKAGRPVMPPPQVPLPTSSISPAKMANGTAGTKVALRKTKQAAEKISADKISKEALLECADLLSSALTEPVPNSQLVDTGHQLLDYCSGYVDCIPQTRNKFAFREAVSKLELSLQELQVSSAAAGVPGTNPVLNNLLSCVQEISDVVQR

COc1ccc(N2C(=O)COc3ccc(-c4cnc(OC)c(NS(=O)(=O)c5ccc(F)cc5)c4)cc32)cc1
inhibition [1]: -2.65%
inhibition [2]: -1.06%
inhibition in vivo at 40 mg/kg (A549): 70.2%
inhibition [3]: -2.6%
inhibition [4]: 13.9%
inhibition [5]: -9.84%
inhibition [6]: 4.76%
inhibition [7]: 8.06%
inhibition [8]: 14.6%
inhibition [9]: -0.5%
inhibition [10]: -7.9%
inhibition [11]: 0.27%
inhibition [12]: 2.98%
inhibition [13]: -1.97%
inhibition [14]: 1.15%
inhibition [15]: 1.42%
inhibition (Homo sapiens): -8.51%
inhibition [16]: -1.5%
inhibition [17]: 6.2%
inhibition [18]: 20.4%
inhibition [19]: 6.76%
inhibition [20]: 7.23%
inhibition [21]: 8.36%
inhibition [22]: -6.25%
inhibition [23]: 13%
inhibition [24]: 20.6%
inhibition [25]: -4.94%
inhibition [26]: -5.7%
inhibition [27]: 2.55%
inhibition [28]: 5.57%
inhibition [29]: 1.4%
